The source of these data is paper PMC8449129, “Single tracer-based protocol for broad-spectrum kinase profiling in live cells with NanoBRET” (STAR Protocols, 2021).

Test in all cases: cell-based
What all share (parameters): NanoBRET live-cell target engagement; % occupancy from displacement of tracer K10 on NanoLuc-kinase fusions, mean n=3
What all share (settings): HEK293, read-out: % inhibition
On the technique in general: In BRET a luciferase serves as donor, and the signal depends on an acceptor being close.

The target in assay [1] is AKT2 (Homo sapiens, UniProt P31751). The procedure, abridged:
(§1)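 Live-cell NanoBRET target engagement: cells expressing kinase–NanoLuc fusion with tracer treated with compound 2 h at 37 °C, 5% CO2. BRET read from donor (450 nm) and acceptor (610/630 nm) emission with 20 μM extracellular NanoLuc inhibitor; % occupancy calculated relative to tracer+DMSO and zero-BRET controls.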

For assay [2], the target named is CDK15 (Homo sapiens, UniProt Q96Q40). The method, boiled down:
as §1

Assay [3] concerns the target CDK20 (Homo sapiens, UniProt Q8IZL9). The procedure, abridged:
as §1

The target of assay [4] is CDK6 (Homo sapiens, UniProt Q00534). The procedure, abridged:
as §1

The target of assay [5] is CHEK2 (Homo sapiens, UniProt O96017). The method, boiled down: as §1
The target of assay [6] is INSR (Homo sapiens, UniProt P06213). The procedure, abridged: as §1
In assay [7] the target is ITK (Homo sapiens, UniProt Q08881). The procedure, abridged:
as §1

For assay [8], the target named is LATS1 (Homo sapiens, UniProt O95835). The procedure, abridged:
as §1

Assay [9] addresses LIMK2 (Homo sapiens, UniProt P53671). The method, boiled down:
as §1

The target in assay [10] is MAP3K12 (Homo sapiens, UniProt Q12852). The procedure, abridged:
as §1

Assay [11] deals with NEK4 (Homo sapiens, UniProt P51957). The procedure, abridged:
as §1

For assay [12], the target named is PRKCE (Homo sapiens, UniProt Q02156). The method, boiled down: as §1
The target in assay [13] is RPS6KA4 (Homo sapiens, UniProt O75676). The procedure, abridged:
as §1

In assay [14] the target is SIK3 (Homo sapiens, UniProt Q9Y2K2). The method, boiled down: as §1
Assay [15] concerns the target SLK (Homo sapiens, UniProt Q9H2G2). The procedure, abridged:
as §1

Assay [16] deals with STK16 (Homo sapiens, UniProt O75716). The method, boiled down: as §1
For assay [17], the target named is TBK1 (Homo sapiens, UniProt Q9UHD2). The procedure, abridged:
as §1

For assay [18], the target named is TNK1 (Homo sapiens, UniProt Q13470). The method, boiled down:
as §1

Sequence of TBK1 (Q9UHD2 whole entry): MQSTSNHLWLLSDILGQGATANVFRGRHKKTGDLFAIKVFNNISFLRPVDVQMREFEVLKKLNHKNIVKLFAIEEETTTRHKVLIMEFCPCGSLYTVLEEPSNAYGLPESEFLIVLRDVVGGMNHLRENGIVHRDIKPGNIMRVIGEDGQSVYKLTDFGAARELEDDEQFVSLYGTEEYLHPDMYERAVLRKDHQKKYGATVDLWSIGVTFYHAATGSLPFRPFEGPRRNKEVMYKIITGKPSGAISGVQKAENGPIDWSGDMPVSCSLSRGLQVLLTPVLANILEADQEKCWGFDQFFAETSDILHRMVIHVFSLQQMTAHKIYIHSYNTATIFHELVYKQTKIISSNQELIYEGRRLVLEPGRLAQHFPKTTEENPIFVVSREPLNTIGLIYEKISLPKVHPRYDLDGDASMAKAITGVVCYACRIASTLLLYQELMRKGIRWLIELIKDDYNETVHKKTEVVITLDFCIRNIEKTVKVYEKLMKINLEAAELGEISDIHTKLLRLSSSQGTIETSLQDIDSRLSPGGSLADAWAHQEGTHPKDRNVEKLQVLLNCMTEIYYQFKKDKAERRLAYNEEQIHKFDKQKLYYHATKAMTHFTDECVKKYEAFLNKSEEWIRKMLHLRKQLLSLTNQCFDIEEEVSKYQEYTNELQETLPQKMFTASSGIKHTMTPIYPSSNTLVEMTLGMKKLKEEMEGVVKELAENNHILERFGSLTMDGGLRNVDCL
Sequence of CDK6 (Q00534 whole entry): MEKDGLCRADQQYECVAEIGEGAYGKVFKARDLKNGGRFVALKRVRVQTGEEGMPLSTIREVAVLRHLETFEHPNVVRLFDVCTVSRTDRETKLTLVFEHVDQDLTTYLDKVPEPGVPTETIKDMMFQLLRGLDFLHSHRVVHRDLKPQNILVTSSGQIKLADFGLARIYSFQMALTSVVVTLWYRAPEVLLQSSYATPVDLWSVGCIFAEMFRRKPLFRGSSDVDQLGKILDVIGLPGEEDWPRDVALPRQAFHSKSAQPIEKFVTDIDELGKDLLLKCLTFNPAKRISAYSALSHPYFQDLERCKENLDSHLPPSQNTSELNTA
Sequence of INSR (P06213 whole entry): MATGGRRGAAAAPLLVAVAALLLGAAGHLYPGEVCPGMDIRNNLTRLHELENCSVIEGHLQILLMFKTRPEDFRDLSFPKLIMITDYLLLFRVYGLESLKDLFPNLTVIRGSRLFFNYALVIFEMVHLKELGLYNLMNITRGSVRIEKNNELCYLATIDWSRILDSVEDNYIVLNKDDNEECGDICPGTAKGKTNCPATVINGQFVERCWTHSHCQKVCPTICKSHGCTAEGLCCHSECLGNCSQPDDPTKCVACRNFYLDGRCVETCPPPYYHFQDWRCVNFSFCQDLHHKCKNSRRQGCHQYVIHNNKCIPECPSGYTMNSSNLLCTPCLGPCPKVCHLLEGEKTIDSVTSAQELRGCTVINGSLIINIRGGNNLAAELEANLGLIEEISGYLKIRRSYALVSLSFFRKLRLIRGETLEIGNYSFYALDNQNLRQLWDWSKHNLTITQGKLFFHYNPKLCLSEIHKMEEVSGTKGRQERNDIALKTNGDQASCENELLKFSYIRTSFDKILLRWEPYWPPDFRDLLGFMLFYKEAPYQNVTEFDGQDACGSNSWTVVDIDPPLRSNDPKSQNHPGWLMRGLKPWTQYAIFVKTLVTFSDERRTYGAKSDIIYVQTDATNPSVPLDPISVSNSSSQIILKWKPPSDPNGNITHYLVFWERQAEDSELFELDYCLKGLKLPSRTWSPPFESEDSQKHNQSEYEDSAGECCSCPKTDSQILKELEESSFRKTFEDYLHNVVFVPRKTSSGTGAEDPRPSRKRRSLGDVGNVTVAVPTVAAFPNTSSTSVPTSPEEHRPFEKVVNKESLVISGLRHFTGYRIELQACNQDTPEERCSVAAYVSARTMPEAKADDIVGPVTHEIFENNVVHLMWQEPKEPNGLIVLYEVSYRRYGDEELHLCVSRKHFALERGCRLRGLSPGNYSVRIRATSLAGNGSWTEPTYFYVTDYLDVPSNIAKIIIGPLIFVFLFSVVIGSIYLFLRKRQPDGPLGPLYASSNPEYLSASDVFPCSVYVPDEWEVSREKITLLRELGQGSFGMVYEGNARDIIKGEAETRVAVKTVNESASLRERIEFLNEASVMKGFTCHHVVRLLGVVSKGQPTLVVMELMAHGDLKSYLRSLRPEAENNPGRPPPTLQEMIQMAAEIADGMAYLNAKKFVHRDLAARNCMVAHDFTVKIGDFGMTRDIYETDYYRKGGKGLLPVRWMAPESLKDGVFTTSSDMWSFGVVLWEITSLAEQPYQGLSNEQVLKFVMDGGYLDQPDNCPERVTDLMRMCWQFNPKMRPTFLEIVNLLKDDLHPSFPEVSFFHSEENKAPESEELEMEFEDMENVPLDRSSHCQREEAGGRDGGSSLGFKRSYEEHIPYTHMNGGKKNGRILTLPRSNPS
Sequence of MAP3K12 (Q12852 whole entry): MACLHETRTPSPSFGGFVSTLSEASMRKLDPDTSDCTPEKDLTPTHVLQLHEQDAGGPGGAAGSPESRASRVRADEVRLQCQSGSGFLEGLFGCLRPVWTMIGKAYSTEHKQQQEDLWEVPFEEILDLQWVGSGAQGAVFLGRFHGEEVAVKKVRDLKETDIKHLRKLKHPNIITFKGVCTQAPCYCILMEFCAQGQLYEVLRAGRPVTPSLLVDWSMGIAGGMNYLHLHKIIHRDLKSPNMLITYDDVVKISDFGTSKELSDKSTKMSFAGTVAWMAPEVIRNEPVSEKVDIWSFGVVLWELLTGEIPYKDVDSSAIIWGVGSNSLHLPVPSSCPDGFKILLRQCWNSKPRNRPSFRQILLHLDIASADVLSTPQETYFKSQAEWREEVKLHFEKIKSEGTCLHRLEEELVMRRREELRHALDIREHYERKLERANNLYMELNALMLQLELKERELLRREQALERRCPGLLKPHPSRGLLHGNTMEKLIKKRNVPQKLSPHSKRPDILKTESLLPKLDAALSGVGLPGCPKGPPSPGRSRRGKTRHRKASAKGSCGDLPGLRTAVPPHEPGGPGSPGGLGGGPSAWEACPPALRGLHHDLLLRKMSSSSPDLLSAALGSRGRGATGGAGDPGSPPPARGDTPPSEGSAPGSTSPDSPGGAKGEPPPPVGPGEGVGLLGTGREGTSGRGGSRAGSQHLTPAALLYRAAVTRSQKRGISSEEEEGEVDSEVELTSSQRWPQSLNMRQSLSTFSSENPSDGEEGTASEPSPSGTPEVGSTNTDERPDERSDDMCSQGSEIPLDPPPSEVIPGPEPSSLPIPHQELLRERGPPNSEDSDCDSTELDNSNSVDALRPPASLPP
Sequence of RPS6KA4 (O75676 whole entry): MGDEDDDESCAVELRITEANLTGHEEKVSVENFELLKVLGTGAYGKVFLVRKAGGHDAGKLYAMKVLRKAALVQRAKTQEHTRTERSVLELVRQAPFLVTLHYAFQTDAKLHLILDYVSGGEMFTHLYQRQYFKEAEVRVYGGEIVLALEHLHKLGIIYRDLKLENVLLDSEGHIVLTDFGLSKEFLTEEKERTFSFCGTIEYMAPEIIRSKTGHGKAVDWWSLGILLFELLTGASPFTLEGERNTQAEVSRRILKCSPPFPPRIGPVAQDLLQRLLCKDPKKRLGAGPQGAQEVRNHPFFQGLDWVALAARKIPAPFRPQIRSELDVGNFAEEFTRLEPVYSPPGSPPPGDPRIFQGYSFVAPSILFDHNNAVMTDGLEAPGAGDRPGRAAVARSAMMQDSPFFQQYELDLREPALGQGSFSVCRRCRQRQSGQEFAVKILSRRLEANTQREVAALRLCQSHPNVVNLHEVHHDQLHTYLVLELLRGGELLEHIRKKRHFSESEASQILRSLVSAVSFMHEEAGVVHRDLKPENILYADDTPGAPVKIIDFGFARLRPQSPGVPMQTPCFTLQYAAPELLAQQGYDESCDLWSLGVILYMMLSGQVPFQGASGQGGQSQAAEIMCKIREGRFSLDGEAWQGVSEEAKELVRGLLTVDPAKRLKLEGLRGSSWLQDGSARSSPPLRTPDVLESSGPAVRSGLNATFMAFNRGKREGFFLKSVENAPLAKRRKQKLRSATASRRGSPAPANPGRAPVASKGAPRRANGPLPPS
Sequence of LIMK2 (P53671 whole entry): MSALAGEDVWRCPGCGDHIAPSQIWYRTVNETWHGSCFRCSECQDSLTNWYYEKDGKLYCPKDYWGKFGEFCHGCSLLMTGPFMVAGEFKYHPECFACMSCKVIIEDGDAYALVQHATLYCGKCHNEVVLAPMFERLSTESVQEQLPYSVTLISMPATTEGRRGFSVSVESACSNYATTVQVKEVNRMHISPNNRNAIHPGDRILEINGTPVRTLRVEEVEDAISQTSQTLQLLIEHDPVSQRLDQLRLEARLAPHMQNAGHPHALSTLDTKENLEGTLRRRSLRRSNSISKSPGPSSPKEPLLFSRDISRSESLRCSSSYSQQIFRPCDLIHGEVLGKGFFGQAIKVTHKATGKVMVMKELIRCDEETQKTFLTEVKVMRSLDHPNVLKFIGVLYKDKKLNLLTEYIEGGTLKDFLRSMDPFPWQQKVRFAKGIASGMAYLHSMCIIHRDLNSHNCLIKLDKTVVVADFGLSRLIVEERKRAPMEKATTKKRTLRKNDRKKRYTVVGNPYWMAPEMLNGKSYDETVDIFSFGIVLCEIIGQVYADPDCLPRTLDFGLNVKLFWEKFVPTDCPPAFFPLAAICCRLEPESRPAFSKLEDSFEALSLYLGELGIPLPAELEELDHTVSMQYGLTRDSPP
Sequence of STK16 (O75716 whole entry): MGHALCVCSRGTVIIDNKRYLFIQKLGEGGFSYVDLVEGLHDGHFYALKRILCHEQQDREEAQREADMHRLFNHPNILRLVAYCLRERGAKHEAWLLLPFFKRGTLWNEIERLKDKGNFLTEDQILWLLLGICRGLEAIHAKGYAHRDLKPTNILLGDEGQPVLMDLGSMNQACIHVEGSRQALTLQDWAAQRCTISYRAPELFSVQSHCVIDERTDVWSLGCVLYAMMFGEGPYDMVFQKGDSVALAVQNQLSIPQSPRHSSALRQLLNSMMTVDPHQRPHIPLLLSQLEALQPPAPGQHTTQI

Broadly, the inhibition is the relative decrease from the control value, in per cent. Take `C[C@@H](Oc1cc(-c2cnn(C3CCNCC3)c2)cnc1N)c1c(Cl)ccc(F)c1Cl` [crizotinib]: the inhibition at 1 µM in assay [1] was -1%; in [2], 3%; in assay [3], -11%; in assay [4] it was 0%; in assay [5], 0%; in assay [6], 20%. The inhibition at 1 µM in assay [7] was -1%; in assay [8], -10%; in assay [9], 32%; in assay [10] it was 12%; in assay [11], -12%; in assay [12] it was -6%. Further, the inhibition at 1 µM in [13] is -11%; in assay [14], 0%; in assay [15] it was 36%; in assay [16] it was -13%; in assay [17], -7%; in assay [18], -6%.
